Measured values taken from article PMC10451632, “Site Mutation Improves the Expression and Antimicrobial Properties of Fungal Defense” (Antibiotics, 2023).
≈ marks a conversion by molar mass, not a printed value. Read-outs that look alike come from different tables or passages of the source. Marks after values point to notes of the source that are not given here.

What was measured:
[1] = test system: S. aureus ATCC 43300; test: Membrane permeability, PI staining by FACS; assay type: cell-based, Staphylococcus aureus; settings: 2× MIC, 10^8 CFU/mL, 37 °C
Method: Figure 8 In vitro antimicrobial analysis of PN7. (A): Time-kill curve of PN7, Plectasin, and vancomycin against S. aureus ATCC. All experiments were performed in triplicate. (B): The PAE of 1×, 2× and 4× MIC of PN7 and vancomycin against S. aureus ATCC 43300 (the MIC values of PN7 and vancomycin against S. aureus ATCC 43300 were 8 μg/mL and 1μg/mL, respectively). All experiments were performed in triplicate. (C): The morphological influence of PN7 on S. aureus ATCC 43300 was observed by SEM. (D,E): The effects of PN7 (D) and Plectasin (E)) on membrane permeability were analyzed by FACS. The logarithmic phase S. aureus ATCC 43300 cells (10^8 CFU/mL) were incubated with or without 2× MIC peptide solutions at 37 °C at different times. All experiments were performed in triplicate. Ple stands for the Plectasin treatment group, Van stands for the vancomycin treatment group, and CK stands for the untreated group. TEXT PRINTED IN THE PICTURE: (D) PN7: 34.4% (2×; 90min); 31.2% (2×; 75min); 30.4% (2×; 60min); 19.2% (2×; 45min); 16.7% (2×; 30min); 1.94% (2×; 15min) | (E) Ple: 32.0% (2×; 90min); 27.4% (2×; 75min); 25.2% (2×; 60min); 12.8% (2×; 45min); 12.0% (2×; 30min); 2.11% (2×; 15min) DOUBTS OF THE COPYIST ABOUT THIS PICTURE: Panels D and E: the picture prints no measure for the percentages, only labels such as "2×PN7-90min: 34.4%" / Panels D and E: "CK: 0.54%" is the untreated control, not a substance, and was left out
The fluorescent dye propidium iodide (PI; Solarbio, Beijing, China) was used to detect the effect of PN7 on the membrane permeability of Staphylococcus aureus. The test method refers to the descriptions in previous studies.

[2] = test system: S. pullorum CVCC 1789; settings: data cited from previous results; cited from earlier work
Excerpt: (§1) Table 6 Antibacterial spectrum (MIC). | column: MIC (μg/mL) / Plectasin

[3] = test system: Streptococcus. suis CVCC 606; settings: data cited from previous results; cited from earlier work
Excerpt: as §1

[4] = test system: Staphylococcus aureus ATCC 43300; settings: data cited from previous results; cited from earlier work
Excerpt: as §1

[5] = test system: P. aeruginosa CICC 21630; settings: data cited from previous results; cited from earlier work
Excerpt: as §1

[6] = test system: E. coli O157; settings: data cited from previous results; cited from earlier work
Excerpt: as §1

[7] = test system: S. aureus E48; settings: data cited from previous results; cited from earlier work
Excerpt: as §1

[8] = test system: S. aureus CVCC 546; settings: data cited from previous results; cited from earlier work
Excerpt: as §1

[9] = test system: Escherichia coli CVCC 195; settings: data cited from previous results; cited from earlier work
Excerpt: as §1

[10] = test system: S. aureus ATCC 43300; test: Time-killing curves; assay type: cell-based, Staphylococcus aureus
Method: S. aureus ATCC 43300 was cultured to the logarithmic stage, MHB medium was used for adjusting the concentration of bacterial suspension, and PN7 (1×, 2× and 4× MIC), Plectasin (1×, 2× and 4× MIC) and 2× MIC vancomycin (the MIC was 1 μg/mL) were added into the suspensions containing 10^5 CFU/mL bacteria (after the count of viable bacteria detection, the initial inoculation amount was 5.15 Log10 CFU/mL), cultured at 37 °C and 250 rpm. A 100 CFU/mL is considered the detection limit. […] In contrast, the count was reduced by 1.6 Log10 CFU/mL after treatment with 2× MIC vancomycin, an approximately 66% population decrease of target pathogens compared with the PN7 treatment group at the same time point of the second hour. After 4 h, the colony number of the peptide treatment group was almost 0, while that of the vancomycin treatment group was 0 after 8 h, at 4 h later than the PN7 treatment. At 24 h, the number of colonies of only 1× MIC Plectasin treatment group rebounded, while no such phenomenon occurred in the other treatment groups.
S. aureus ATCC 43300 was cultured to the logarithmic stage. MHB medium adjusted the concentration of bacterial suspension, and PN7 (1×, 2× and 4× MIC) was added into the suspensions containing 10^5 CFU/mL bacteria, cultured at 37 °C and 250 rpm. 1×, 2×, 4× MIC Plectasin and 2× MIC vancomycin were used as positive controls, and the group treated without antibiotics was used as the blank controls. Then, 100 μL samples were taken at different time points and were continuously diluted and coated on MHA medium for colony counting. A 100 CFU/mL is considered the detection limit.

[11] = test system: S. aureus ATCC 43300; test: Post antibiotic effect (PAE); assay type: cell-based, Staphylococcus aureus; settings: triplicate
Excerpt: The post-antibiotic effect reflects the inhibitory effect on the growth of pathogenic bacteria after short contact with drugs, which is related to the strength of the bactericidal activity of drugs. The test method of the PAE of PN7 against S. aureus ATCC 43300 refers to the descriptions in previous studies.

[12] = test system: Staphylococcus aureus ATCC 43300; test: microbe, parasite or virus in culture; assay type: cell-based; settings: Staphylococcus aureus, ATCC43300; microtiter broth dilution, MHB, 10^5 CFUs/mL, 16–18 h at 37 °C; read-out: MIC
Method: The experimental operation of the expression of the Plectasin variant in P. pastoris in well plates, shaking flasks, and 5 L level fermentation was performed as referenced in previous studies. Candidates were identified through three different levels of screening. Firstly, a large number of transformants were screened through well plates to induce expression and determined by the inhibition zone assay (against S. aureus ATCC 43300). Secondly, the transformants with obvious inhibition zones were sequenced to obtain protein sequence information, then induced expression at the shake level. The supernatant was collected and purified to obtain the target protein; the anti-Staphylococcus aureus activity of the protein was detected by a MIC assay. Finally, the codons of candidate sequences were optimized, the expression vector was reconstructed, the optimal transformers were obtained, and the high-density cultivation was performed in a 5 L fermenter. The final agent was determined by high protein yield and good activity (Figure 2).
The MIC value of PN7 against bacteria was determined by the microtiter broth dilution method. Briefly, bacteria grown to the exponential phase were diluted into MHB; subsequently, 90 μL of bacterial suspension (10^5 CFUs/mL) was mixed with 10 μL of different concentrations of PN7 in a sterilized 96-well microtiter plate (Nunc). MIC values were recorded after incubation for 16–18 h at 37 °C based on the lowest concentrations of peptides in which no visible bacterial growth was observed.

CC[C@H](C)[C@@H]1NC(=O)[C@H](CO)NC(=O)[C@H](CCCCN)NC(=O)[C@@H]2CSSC[C@@H](C(=O)N[C@@H](Cc3ccc(O)cc3)C(=O)O)NC(=O)[C@H](CCCCN)NC(=O)[C@@H]3CSSC[C@H](NC(=O)[C@H](CCC(N)=O)NC(=O)[C@H](CCSC)NC(=O)[C@H](CC(=O)O)NC(=O)[C@H](CC(=O)O)NC(=O)[C@H](CCC(=O)O)NC(=O)[C@H](CC(=O)O)NC(=O)[C@H](Cc4c[nH]c5ccccc45)NC(=O)[C@@H]4CCCN4C(=O)CNC(=O)[C@H](CC(N)=O)NC(=O)[C@@H](NC(=O)CNC(=O)[C@H](Cc4ccccc4)NC(=O)CN)CSSC[C@H](NC(=O)[C@H](Cc4ccc(O)cc4)NC(=O)CNC(=O)CNC(=O)[C@H](CCCCN)NC(=O)[C@H](Cc4ccc(O)cc4)NC(=O)CNC(=O)[C@H](CCCCN)NC1=O)C(=O)N[C@@H](C)C(=O)N[C@@H](CCCCN)C(=O)NCC(=O)NCC(=O)N[C@@H](Cc1ccccc1)C(=O)N[C@@H](C(C)C)C(=O)N3)C(=O)N[C@@H](Cc1c[nH]cn1)C(=O)N[C@@H](CC(N)=O)C(=O)N[C@@H](Cc1c[nH]cn1)C(=O)N2 [Plectasin]
PI-staining percentage of cells ([1]; 30 min): 12.0% | PI-staining percentage of cells ([1]; 60 min): 25.2% | PI-staining percentage of cells ([1]; 90 min): 32.0% | MIC [2]: >128 ^a μg/mL | MIC [3]: 1 ^a μg/mL | MIC [4]: 4 ^a μg/mL | MIC [5]: >128 ^a μg/mL | MIC [6]: >128 ^a μg/mL | MIC [7]: 4 ^a μg/mL | MIC [8]: 16 ^a μg/mL | MIC [9]: >128 ^a μg/mL | number of colonies at 24 h ([10]; 1× MIC, time-kill): rebounded

CN[C@H](CC(C)C)C(=O)N[C@H]1C(=O)N[C@@H](CC(N)=O)C(=O)N[C@H]2C(=O)N[C@H]3C(=O)N[C@H](C(=O)N[C@H](C(=O)O)c4cc(O)cc(O)c4-c4cc3ccc4O)[C@H](O)c3ccc(c(Cl)c3)Oc3cc2cc(c3O[C@@H]2O[C@H](CO)[C@@H](O)[C@H](O)[C@H]2O[C@H]2C[C@](C)(N)[C@H](O)[C@H](C)O2)Oc2ccc(cc2Cl)[C@H]1O [vancomycin, reference compound]
PAE ([11]; 1× MIC): 0.11 h | PAE ([11]; 2× MIC): 0.54 h | PAE ([11]; 4× MIC): 0.78 h | reduction of bacterial counts during the first two hours ([10]; 2× MIC, initial inoculum 5.15 Log10 CFU/mL, MHB, 37 °C, 250 rpm, triplicate): 1.6 Log10 CFU/mL | time to kill 99% of S. aureus ATCC 43300 ([10]; time-kill, 2× MIC): 8 h | time after which the colony number was (almost) 0 ([10]; time-kill, detection limit 100 CFU/mL, vancomycin at 2× MIC): 8 h | MIC [12]: 1 µg/mL (≈ 0.69 µM)
